Common to all, as to format: cell-based, Chinese Hamster
In assay [1] the test system is CHO-DG44 cells producing a full-length antibody, mAb1. Description: Fed-batch shake flask culture with cysteine in Feed replaced by cysteine/cystine derivatives (Example 1). How it is done:
The ability of cysteine/cystine derivatives to reduce color and acidic species of an antibody preparation produced recombinantly by host cells grown in cell culture was evaluated. For this experiment, a scale-down model in shake flask was used. CHO-DG44 cells producing a full-length antibody, mAb1, were inoculated in 100 mL of basal media at a seeding density of 0.35×10^6 cells/mL mAb1 comprises a light chain having the sequence as defined in SEQ ID NO: 9 and a heavy chain having the sequence as defined in SEQ ID NO: 10.
The shake flask vessels were 250 mL shake flasks (corning) disposed in an agitated incubator (Infors) protected from light. The cells were cultivated for 14 days at 36.8° C. with 80% humidity. The cell cultures were agitated at 140 rpm at the beginning of the process. The agitation was increased during the process progressively to reach 250 rpm to maintain a DO % at 40% in the shake flask, as is it done in a 2 L bioreactor process. The cell culture was maintained at pH 7.0±0.2 by decreasing the CO2 in the incubator from 5% before the process to 2% during the process. Cells were cultured in a fed-batch mode with bolus addition of Feed every day of culture. The basal media contained 0.04 mmol/L of cysteine+0.38 mmol/L of cystine. The Feed contained 153.3 mmol/L of cystine. Over the entire 14-day production phase, the total volume of Feed added corresponded to 4.47% (v/v) of the culture start volume.
The cysteine present in the Feed was replaced by different cysteine and cystine derivatives at different percentages as presented in Table 1. Osmolality was daily monitored using an osmometer from Advanced Instruments. Off line pH, dissolved O2 and dissolved CO2 were daily monitored using a model BioProfile pHOx® blood gas analyser (Nova Biomedical Corporation, Waltham, Mass.). Metabolites concentrations were daily determined using a CedexBioHT system (Roche). Viable cell concentration and cell viability were measured daily using a ViCell automated cell counter (Beckman Coulter). The cell culture fluid was collected daily by centrifuging 1 mL of cell culture fluid for determination of antibody titer using protein A HPLC (Waters). At the end of the 14 days of culture, the cell culture fluid was harvested by centrifugation. The supernatant was then purified using a protein-A affinity chromatography (MabSelect Sure, GE). […] The relative percentage of main, acidic (APG for Acidic Peak Group) and basic (BPG for Basic Peak Group) isoforms of the purified mAb was determined by Imaged Capillary Electrophoresis (PROTEINSIMPLE iCE3). […]
Color intensity of the concentrated antibody composition was measured in the concentrated protein A eluates using a spectrophotometer by transmission (UltrascanPro) and compared to the CIE (commission internationale de l'éclairage) scale. […]

The subject of assay [2] is CHO-DG44 cells from cell line 1. Description: Fed-batch 2 L bioreactor culture with cysteine/cystine derivatives, cell line 1 (Example 3). To be noted: 50% replacement, cell line 1, 2 L bioreactor; for decrease of the b value level (color intensity) compared to control: 40 mg/mL. How it is done: (§1) The ability of cysteine/cystine derivatives to reduce color and acidic species of a recombinant protein preparation produced in cell culture was evaluated in a bioreactor for two cell lines. This model is more representative of the large-scale production than the shake flask due to the geometry and additional control. CHO-DG44 cells from cell line 1 and 2 were inoculated in 1300 mL of basal media at a seeding density of 0.35×10^6 cells/mL in 2 L stirred bioreactor (Sartorius). The cells were cultivated during 14 days in fed-batch mode. The cell cultures were agitated at 280 rpm and the DO was maintained at 40%. The cell culture was maintained at pH 7.0±0.2 with an automatic CO2 sparging regulation. Cells were cultured in a fed-batch mode with bolus addition of Feed every day of culture. The basal media contained 0.04 mmol/L of cysteine+0.38 mmol/L of cystine. The Feed contained 153.3 mmol/L of cystine. Over the entire 14-day production phase, the total volume of Feed added corresponded to 5.7% (w/w) of the culture start volume for cell line 1 and to 3.1% (w/w) of the culture start volume for cell line 2.
(§2) The cysteine present in the Feed was replaced by different cysteine- and cystine derivatives at different percentages as presented in Table 2. A condition with only 50% of cysteine was added to test whether the improvements observed were due to the cysteine derivative or to the reduction of cysteine only. Osmolality was daily monitored using an osmometer from Advanced instrument. Off line pH, dissolved O2 and dissolved CO2 were daily monitored using a Nova Biomedical Phox (Nova biomedical). Metabolites concentrations were daily determined using a CedexBioHT system (Roche). Viable cell concentration and cell viability were measured daily using a ViCell automated cell counter (Beckman Coulter). The cell culture fluid was collected daily by centrifuging 1 mL of cell culture fluid for determination of antibody titer by HPLC prot A (waters) or using protein-L Octet measurement (Pall). At the end of the 14 days of culture, the cell culture fluid was harvested by centrifugation. The supernatant was then purified using a protein-A or L affinity chromatography (GE). The protein-A or L eluates were used for the molecular weight determination using UPLC size exclusion (Waters) and for the charge variants determination using isocapillary focusing (PROTEINSIMPLE iCE3). Another part of the protein-A eluates (only from cell line 1) was concentrated to 40 mg/mL using Amicon centricon centrifugal filter devices (Millipore). Color intensity of the concentrated antibody composition was measured in the concentrated protein A eluates using a spectrophotometer by transmission (UltrascanPro) and compared to the CIE (commission internationale de l'éclairage) scale. The numerical results were normalized to the concentration of 40 mg/mL.

The subject of assay [3] is CHO-DG44 cells from cell line 2. Description: Fed-batch 2 L bioreactor culture with cysteine/cystine derivatives, cell line 2 (Example 3). To be noted: 50% replacement; cell line 2, 2 L bioreactor. How it is done: as §1, §2
A further assay deals with cell line 1. Description: Reproducibility in 2 L bioreactor, cell line 1, average of data sets 1 and 2 (Example 4). Particulars: for cell growth (VCC) compared to control: from day 9, 2 L bioreactor, data sets 1 and 2. As to the method: as §1, §2
The reproducibility of the results was evaluated in bioreactor with cell line 1. The experiments of Example 3 were repeated with an additional control and a bioreactor with 50% S-sulfocysteine 50% Cysteine Feed. The data from the two experiments were analyzed to confirm the effect previously observed with cysteine/cystine derivatives.

Assay [4] concerns CHO-DG44 cells from cell line 1. Description: Fed-batch Ambr15 mini bioreactor culture, different replacement levels, cell line 1 (Example 5). Particulars: for cell growth: 90% of cysteine/cystine in Feed replaced, Ambr15. How it is done:
We tested different concentrations of cysteine/cystine derivatives on the improvement on the APG level of a recombinant protein preparation produced in cell culture cultivated in mini bioreactors. CHO-DG44 cells from cell line 1 were inoculated in 12 mL basal media at a seeding density of 0.35×10^6 cells/mL in Ambr15 bioreactors (Sartorius). The cells were cultivated in fed-batch mode during 14 days. The DO was maintained at 40% and the pH was maintained 7.0±0.2 with an automatic CO2 sparging regulation. Viable cell concentration and cell viability were measured daily using a ViCell automated cell counter (Beckman Coulter). Cells were cultured in a fed-batch mode with a daily bolus addition of Feed. The basal media contained 0.04 mmol/L cysteine+0.38 mmol/L cystine. The Feed contained 153.3 mmol/L of cystine. Over the entire 14-day production phase, the total volume of added Feed corresponded to 4.7% (v/v) of the culture start volume.
Different percentages of cysteine present in the Feed was replaced by different cysteine- and cystine analogs. Table 4 provides an overview of different percentages tested and their equivalence in molar ratio relative to cysteine or cystine. E.g. for N-Acetyl-L-cysteine 10% means that 10% molar amount of cysteine equivalent has been replaced by 10% molar amount of N-Acetyl-L-cysteine; for N,N′-Diacetyl-L-cystine, 10% means that 10 molar amount of cystine equivalent has been replaced with 10% molar amount of N,N′-Diacetyl-L-cystine. At the end of the 14 days of culture, the cell culture fluid was harvested by centrifugation. The supernatant was then purified using a protein-A affinity chromatography (GE). The protein-A eluates were used for the charge variants determination using isocapillary focusing (PROTEINSIMPLE iCE3).

Where [5] appears, read: 50% replacement, compared to 50% cysteine feed.
Where [6] appears, read: 50% replacement, data sets 1 and 2 average.

`COC(=O)[C@H](CSSC[C@H](NC(C)=O)C(=O)OC)NC(C)=O` [N,N′-diacetyl-L-cystine dimethylester, N,N′-diacetyl-L-cystine-dimethylester]: the “decrease of b*value (color intensity) of the concentrated protein-A eluate compared to control” value in assay [1] (50% replacement, day 14, eluate normalized to 40 mg/mL) stood at 21.2%. For the same compound, the “decrease on acidic variants level compared to control” value in assay [1] (50% replacement, day 14, iCE3) is 24.8%. In assay [2], the “decrease of acidic species level compared to control” value (“decrease of acidic species level” for short) came to 15%, the “decrease of antibody titer compared to control” value is “less than 5%”, the main species level entry is on record as “increase of main species” and the “decrease of the b value level (color intensity) compared to control” value was found to be 25%. In assay [3], the “decrease of acidic species level” value was found to be 13% and the main species level entry is “increase of main species”. For the same compound, in the assay on cell line 1 (setting [5]), the specific productivity result was “increase of the specific productivity”. In addition, in the assay with cell line 1 (setting [6]), the “average decrease of b value level (color intensity) compared to control” value (“average decrease of b value level” below) is listed as 30% and the “decrease in antibody titer compared to the controls average” value (“decrease in antibody titer” for short) is recorded as “less than 5%”. Further, the “titer loss due to cysteine reduction in feed compensated” value with cell line 1 (compared to 50% cysteine feed) was determined as 5%. Moreover, in assay [4] (10-90% replacement), the “acidic species level with respect to the control” value was “decrease of the acidic species level”. The cell growth result in assay [4] is “Inhibition of the growth”.

As for `CC(=O)N[C@@H](CSSC[C@H](NC(C)=O)C(=O)O)C(=O)O` [N,N′-diacetyl-L-cystine, N,N′-Diacetyl-L-cystine], in assay [2], the “decrease of acidic species level” value is given as 5%, the main species level result is “increase of main species” and the “decrease of the b value level (color intensity) compared to control” value was 2.5%. In assay [3], the “decrease of acidic species level” value is recorded as 8% and the main species level result is “increase of main species”. Moreover, in the assay on cell line 1 (setting [5]), the specific productivity entry is listed as “did not impact the productivity”. Further, in the assay on cell line 1 (setting [6]), the “average decrease of b value level” value is recorded as 14%, the “decrease in antibody titer” value is listed as 10% and the main species level entry is “increase of main species”. Further, in the assay on cell line 1 (50% replacement), the “cell growth (VCC) compared to control” value is on record as “higher VCCs than the control conditions”. Moreover, the “main charge species level with respect to the control” value in assay [4] (10-90% replacement) is “positive difference with respect to the control”. The cell growth result in assay [4] is recorded as “Inhibition of the growth”. Moreover, the “maximum reduction of acidic species level with respect to the control” value in assay [4] (with the increase of the percentage of replacement (10-90%)) worked out at 27.5%.

`N[C@@H](CSS(=O)(=O)O)C(=O)O` [S-sulfocysteine, S-Sulfocysteine, reference compound]: in assay [1] (50% of cysteine in Feed replaced), the “maximum viable cell concentration” value was 2×10^6 cells/mL. For the same compound, in assay [1] (100% of cysteine in Feed replaced by derivative, shake flask, 14 days), the “cell growth (viable cell concentration) compared to control” value was “cells rapidly died on day 7”. Also, the specific productivity entry with cell line 1 (setting [5]) is given as “not to a specific impact”. In the assay on cell line 1 (setting [6]), the “average decrease of b value level” value amounted to 5% and the “decrease in antibody titer” value is given as 25%. Further, the “cell growth (VCC) compared to control” value in the assay with cell line 1 (50% replacement) is “higher cell death than the control”.

These data come from US11859203B2, “Cell culture methods” (UCB BIOPHARMA SRL, priority 2017, dated 2024).
